Assay results from ChEMBL document CHEMBL3526058, “Investigating the enteroenteric recirculation of apixaban, a factor Xa inhibitor: administration of activated charcoal to bile duct-cannulated rats and dogs receiving an intravenous dose and use of drug transporter knockout rats” (Drug Metab Dispos, 2013).

Key:
[1] = test system: Rattus norvegicus; experiment: Metabolism and biliary clearance in wild-type 30 mins activated charcoal pre-treated bile duct-cannulated Sprague-Dawley rat at 2 mg/kg, iv followed by activated charcoal administration 5 to 180 mins post compound dosing relative to total clearance; type: ADME, organism-based; design: dose 2 mg/kg, route intravenous; conditions: in vivo
[2] = Volume of distribution at steady state in P-gp-knockout Sprague-Dawley rat at 2 mg/kg, iv; type: ADME, organism-based; design: dose 2 mg/kg, route intravenous; conditions: in vivo, read-out: Vdss
[3] = Mean residence time in P-gp-knockout Sprague-Dawley rat at 2 mg/kg, iv; type: ADME, organism-based; design: dose 2 mg/kg, route intravenous; conditions: in vivo
[4] = AUC (0 to infinity) in wild-type bile duct-cannulated Sprague-Dawley rat at 2 mg/kg, iv administered 0.125 hr post GF-120918 treatment; type: ADME, organism-based; design: time infinity, dose 2 mg/kg, route intravenous; conditions: in vivo, with GF-120918
[5] = Cmax in wild-type bile duct-cannulated Sprague-Dawley rat at 2 mg/kg, iv administered 0.125 hr post GF-120918 treatment; type: ADME, organism-based; design: dose 2 mg/kg, route intravenous; conditions: in vivo, with GF-120918
[6] = Clearance in wild-type bile duct-cannulated Sprague-Dawley rat at 2 mg/kg, iv administered 0.125 hr post GF-120918 treatment; type: ADME, organism-based; design: dose 2 mg/kg, route intravenous; conditions: in vivo, with GF-120918
[7] = test system: Rattus norvegicus; experiment: Metabolism and biliary clearance at 8 hrs in wild-type bile duct-cannulated Sprague-Dawley rat at 2 mg/kg, iv administered 0.125 hr post GF-120918 treatment; type: ADME, organism-based; design: dose 2 mg/kg, route intravenous; conditions: in vivo
[8] = Renal clearance in P-gp-knockout Sprague-Dawley rat at 2 mg/kg, iv; type: ADME, organism-based, Kidney; design: dose 2 mg/kg, route intravenous; conditions: in vivo
[9] = test system: Rattus norvegicus; experiment: Intestinal clearance in P-gp-knockout Sprague-Dawley rat at 2 mg/kg, iv; type: ADME, organism-based; design: dose 2 mg/kg, route intravenous; conditions: in vivo
[10] = AUC (0 to infinity) in wild-type 30 mins activated charcoal pre-treated bile duct-cannulated Sprague-Dawley rat at 2 mg/kg, iv followed by activated charcoal administration 5 to 180 mins post compound dosing; type: ADME, organism-based; design: time infinity, dose 2 mg/kg, route intravenous; conditions: in vivo
[11] = Half life in wild-type 30 mins activated charcoal pre-treated bile duct-cannulated Sprague-Dawley rat at 2 mg/kg, iv followed by activated charcoal administration 5 to 180 mins post compound dosing; type: ADME, organism-based; design: dose 2 mg/kg, route intravenous; conditions: in vivo
[12] = Clearance in wild-type 30 mins activated charcoal pre-treated bile duct-cannulated Sprague-Dawley rat at 2 mg/kg, iv followed by activated charcoal administration 5 to 180 mins post compound dosing; type: ADME, organism-based; design: dose 2 mg/kg, route intravenous; conditions: in vivo
[13] = Mean residence time in wild-type 30 mins activated charcoal pre-treated bile duct-cannulated Sprague-Dawley rat at 2 mg/kg, iv followed by activated charcoal administration 5 to 180 mins post compound dosing; type: ADME, organism-based; design: dose 2 mg/kg, route intravenous; conditions: in vivo
[14] = Renal clearance in wild-type 30 mins activated charcoal pre-treated bile duct-cannulated Sprague-Dawley rat at 2 mg/kg, iv followed by activated charcoal administration 5 to 180 mins post compound dosing; type: ADME, organism-based, Kidney; design: dose 2 mg/kg, route intravenous; conditions: in vivo
[15] = test system: Rattus norvegicus; experiment: Intestinal clearance in wild-type 30 mins activated charcoal pre-treated bile duct-cannulated Sprague-Dawley rat at 2 mg/kg, iv followed by activated charcoal administration 5 to 180 mins post compound dosing; type: ADME, organism-based; design: dose 2 mg/kg, route intravenous; conditions: in vivo
[16] = test system: Rattus norvegicus; experiment: Metabolism and biliary clearance in wild-type 30 mins activated charcoal pre-treated bile duct-cannulated Sprague-Dawley rat at 2 mg/kg, iv followed by activated charcoal administration 5 to 180 mins post compound dosing; type: ADME, organism-based; design: dose 2 mg/kg, route intravenous; conditions: in vivo
[17] = test system: Rattus norvegicus; experiment: Renal clearance in wild-type 30 mins activated charcoal pre-treated bile duct-cannulated Sprague-Dawley rat at 2 mg/kg, iv followed by activated charcoal administration 5 to 180 mins post compound dosing relative to total clearance; type: ADME, organism-based, Kidney; design: dose 2 mg/kg, route intravenous; conditions: in vivo
[18] = test system: Canis familiaris; experiment: Clearance in bile duct-cannulated beagle dog at 1 mg/kg, iv administered as 5 mins infusion; type: ADME, organism-based, Canis lupus familiaris; design: dose 1 mg/kg, route intravenous; conditions: in vivo
[19] = test system: Canis familiaris; experiment: AUC (0 to infinity) in bile duct-cannulated beagle dog at 1 mg/kg, iv administered as 5 mins infusion followed by activated charcoal administration 10 to 420 mins post compound dosing; type: ADME, organism-based, Canis lupus familiaris; design: time infinity, dose 1 mg/kg, route intravenous; conditions: in vivo
[20] = Cmax in bile duct-cannulated beagle dog at 1 mg/kg, iv administered as 5 mins infusion followed by activated charcoal administration 10 to 420 mins post compound dosing; type: ADME, organism-based, Canis lupus familiaris; design: dose 1 mg/kg, route intravenous; conditions: in vivo
[21] = test system: Canis familiaris; experiment: Clearance in bile duct-cannulated beagle dog at 1 mg/kg, iv administered as 5 mins infusion followed by activated charcoal administration 10 to 420 mins post compound dosing; type: ADME, organism-based, Canis lupus familiaris; design: dose 1 mg/kg, route intravenous; conditions: in vivo
[22] = Drug recovery in urine of bile duct-cannulated beagle dog at 1 mg/kg, iv administered as 5 mins infusion followed by activated charcoal administration 10 to 420 mins post compound measured up to 72 hrs; type: ADME, organism-based, Canis lupus familiaris; design: dose 1 mg/kg, route intravenous; conditions: read-out: Drug recovery
[23] = Drug recovery in bile of bile duct-cannulated beagle dog at 1 mg/kg, iv administered as 5 mins infusion measured up to 72 hrs; type: ADME, organism-based, Canis lupus familiaris; design: dose 1 mg/kg, route intravenous; conditions: read-out: Drug recovery
[24] = Drug recovery in feces of bile duct-cannulated beagle dog at 1 mg/kg, iv administered as 5 mins infusion measured up to 72 hrs; type: ADME, organism-based, Canis lupus familiaris; design: dose 1 mg/kg, route intravenous; conditions: read-out: Drug recovery
[25] = Drug recovery in urine of bile duct-cannulated Sprague-Dawley rat at 2 mg/kg, iv measured up to 24 hrs; type: ADME, organism-based; design: dose 2 mg/kg, route intravenous; conditions: read-out: Drug recovery
[26] = Drug recovery in urine of 30 mins activated charcoal pre-treated bile duct-cannulated Sprague-Dawley rat at 2 mg/kg, iv followed by activated charcoal administration 5 to 180 mins post compound dosing measured up to 48 hrs; type: ADME, organism-based; design: dose 2 mg/kg, route intravenous; conditions: read-out: Drug recovery
[27] = Drug recovery in urine of bile duct-cannulated BCRP-knockout Sprague-Dawley rat at 2 mg/kg, iv measured up to 24 hrs; type: ADME, organism-based; design: dose 2 mg/kg, route intravenous; conditions: read-out: Drug recovery
[28] = Drug recovery in urine of Sprague-Dawley rat at 30 mg/kg, po measured up to 168 hrs; type: ADME, organism-based; design: dose 30 mg/kg, route oral; conditions: read-out: Drug recovery
[29] = Drug recovery in urine of bile duct-cannulated Sprague-Dawley rat at 30 mg/kg, po measured up to 48 hrs; type: ADME, organism-based; design: dose 30 mg/kg, route oral; conditions: read-out: Drug recovery
[30] = Drug recovery in bile of bile duct-cannulated Sprague-Dawley rat at 2 mg/kg, iv measured up to 24 hrs; type: ADME, organism-based; design: dose 2 mg/kg, route intravenous; conditions: read-out: Drug recovery
[31] = Mean residence time in BCRP-knockout Sprague-Dawley rat at 2 mg/kg, iv; type: ADME, organism-based; design: dose 2 mg/kg, route intravenous; conditions: in vivo
[32] = test system: Rattus norvegicus; experiment: Intestinal clearance in BCRP-knockout Sprague-Dawley rat at 2 mg/kg, iv relative to total clearance; type: ADME, organism-based; design: dose 2 mg/kg, route intravenous; conditions: in vivo
[33] = test system: Rattus norvegicus; experiment: Metabolism and biliary clearance in BCRP-knockout Sprague-Dawley rat at 2 mg/kg, iv relative to total clearance; type: ADME, organism-based, Bile; design: dose 2 mg/kg, route intravenous; conditions: in vivo
[34] = Drug recovery in bile of bile duct-cannulated Sprague-Dawley rat at 2 mg/kg, iv administered 1 hr post GF-120918 treatment measured up to 48 hrs; type: ADME, organism-based; design: dose 2 mg/kg, route intravenous; conditions: with GF-120918, given 1 hr before the compound, read-out: Drug recovery
[35] = Drug recovery in bile of bile duct-cannulated Sprague-Dawley rat at 30 mg/kg, po measured up to 48 hrs; type: ADME, organism-based; design: dose 30 mg/kg, route oral; conditions: read-out: Drug recovery
[36] = Drug recovery in feces of bile duct-cannulated Sprague-Dawley rat at 2 mg/kg, iv administered 1 hr post GF-120918 treatment measured up to 48 hrs; type: ADME, organism-based; design: dose 2 mg/kg, route intravenous; conditions: with GF-120918, given 1 hr before the compound, read-out: Drug recovery
[37] = Drug recovery in feces of Sprague-Dawley rat at 2 mg/kg, iv measured up to 168 hrs; type: ADME, organism-based; design: dose 2 mg/kg, route intravenous; conditions: read-out: Drug recovery
[38] = AUC (0 to infinity) in wild-type bile duct-cannulated Sprague-Dawley rat at 2 mg/kg, iv; type: ADME, organism-based; design: time infinity, dose 2 mg/kg, route intravenous; conditions: in vivo
[39] = Half life in wild-type bile duct-cannulated Sprague-Dawley rat at 2 mg/kg, iv; type: ADME, organism-based; design: dose 2 mg/kg, route intravenous; conditions: in vivo
[40] = Renal clearance in wild-type bile duct-cannulated Sprague-Dawley rat at 2 mg/kg, iv; type: ADME, organism-based, Kidney; design: dose 2 mg/kg, route intravenous; conditions: in vivo
[41] = test system: Rattus norvegicus; experiment: Metabolism and biliary clearance in wild-type bile duct-cannulated Sprague-Dawley rat at 2 mg/kg, iv; type: ADME, organism-based; design: dose 2 mg/kg, route intravenous; conditions: in vivo

**Q.** Which CL [1] does the source give for COc1ccc(-n2nc(C(N)=O)c3c2[14C](=O)N(c2ccc(N4CCCCC4=O)cc2)CC3)cc1 here?
**A.** 33%

**Q.** And the Vd [2]?
**A.** 0.7 L/kg

**Q.** And the MRT [3]?
**A.** 48 min

**Q.** And the AUC(0-inf) [4]?
**A.** 2840 ng·h/mL

**Q.** What about the Cmax [5] of the same compound?
**A.** 1970 ng/mL

**Q.** And the clearance [6]?
**A.** 11.7 mL/min/kg

**Q.** And the CL [7]?
**A.** 4.17 mL/min/kg

**Q.** And the CL renal [8]?
**A.** 6.5 mL/min/kg

**Q.** And the CL [9]?
**A.** 3.67 mL/min/kg

**Q.** What about the AUC(0-inf) [10] of the same compound?
**A.** 1020 ng·h/mL

**Q.** And the half-life [11]?
**A.** 48 min

**Q.** What about the clearance [12] of the same compound?
**A.** 33.3 mL/min/kg

**Q.** What about the MRT [13] of the same compound?
**A.** 36 min

**Q.** What about the CL renal [14] of the same compound?
**A.** 13 mL/min/kg

**Q.** And the CL [15]?
**A.** 9.17 mL/min/kg

**Q.** And the CL [16]?
**A.** 11.2 mL/min/kg

**Q.** What about the CL [17] of the same compound?
**A.** 39%

**Q.** And the CL [18]?
**A.** 0.667 mL/min/kg

**Q.** What about the AUC [19] of the same compound?
**A.** 5600 ng·h/mL

**Q.** And the Cmax [20]?
**A.** 4330 ng/mL

**Q.** And the CL [21]?
**A.** 0.833 mL/min/kg

**Q.** And the dose excreted [22]?
**A.** 8.1%

**Q.** And the dose excreted [23]?
**A.** 12.4%

**Q.** What about the dose excreted [24] of the same compound?
**A.** 42.7%

**Q.** What about the dose excreted at 24 h [25] of the same compound?
**A.** 49.5%

**Q.** And the dose excreted [26]?
**A.** 40.7%

**Q.** What about the dose excreted at 24 h [27] of the same compound?
**A.** 35.5%

**Q.** And the dose excreted at 168 h [28]?
**A.** 13.4%

**Q.** What about the dose excreted at 48 h [29] of the same compound?
**A.** 10.5%

**Q.** What about the dose excreted at 24 h [30] of the same compound?
**A.** 10.7%

**Q.** What about the MRT [31] of the same compound?
**A.** 84 min

**Q.** And the CL [32]?
**A.** 37%

**Q.** And the CL [33]?
**A.** 30%

**Q.** And the dose excreted [34]?
**A.** 14.7%

**Q.** What about the dose excreted at 48 h [35] of the same compound?
**A.** 2.6%

**Q.** And the dose excreted [36]?
**A.** 13.8%

**Q.** And the dose excreted at 168 h [37]?
**A.** 41.1%

**Q.** What about the AUC(0-inf) [38] of the same compound?
**A.** 1410 ng·h/mL

**Q.** And the half-life [39]?
**A.** 72 min

**Q.** And the CL renal [40]?
**A.** 11.8 mL/min/kg

**Q.** And the CL [41]?
**A.** 6.5 mL/min/kg
